# Measured values from patent US6861448B2, “NAD synthetase inhibitors and uses thereof” (priority 1998, dated 2005).
# Where two headings read alike, the source gives them in different places.
# How the values were obtained:
# [1] = test system: Bacillus anthracis Sterne 34F2; assay: microbe, parasite or virus in culture; assay type: cell-based; settings: for MIC: Bacillus anthracis
# [2] = test system: S. aureus (MCR); assay: microbe, parasite or virus in culture; assay type: cell-based; settings: for MIC: Staphylococcus aureus, read-out: Minimal Inhibitory Concentration (MIC), S. aureus (MCR), multiple values = two or more tests; for Minimal Inhibitory Concentration (MIC), S. aureus (MCR): multiple values = two or more tests
# [3] = biological target: NAD synthetase (Bacillus subtilis, UniProt P08164); assay: NAD synthetase coupled enzyme assay; assay type: biochemical; settings: NAD synthetase 2.0 μg/mL; 0.1 mM NaAD; 0.2 mM ATP; pH 8.5
# Excerpt: This Example illustrates the NAD synthetase enzyme inhibiting activity of some compounds of the present invention. [drawing 48] The coupled assay—production of NAD was monitored through conversion to NADH by alcohol dehydrogenase. [NADH] was monitored by 2 parallel methods: the change in absorbance at 340 nm, and fluorescence at 460 nm (excitation 320 nm). […] Controls were included for determining inhibitor background, precipitation, and ADH inhibition.
# [4] = test system: rabbit primary renal cells (RPRC); assay: Cytotoxicity in rabbit primary renal cells (annexin V / PI flow cytometry); assay type: cell-based; settings: 24 hr, mean ± SEM; for % CELLULAR NECROSIS (RPRC): at 300 μM; for % APOPTOSIS (RPRC): at peak effect (30 μM)
# Method: Cytotoxicity in Rabbit Primary Renal Cells
# Isolation of Proximal Tubules and Culture Conditions
# Rabbit renal proximal tubules were isolated using the iron oxide perfusion method and grown in 35-mm tissue culture dishes under improved conditions. The cell culture medium was a 1:1 mixture of DMEM/Ham's F-12 (without D-glucose, phenol red, or sodium pyruvate) supplemented with 15 mM HEPES buffer, 2.5 mM L-gluatmine, 1 μM pyridoxine HCL, 15 mM sodium bicarbonate, and 6 mM lactate. Hydrocortisone (50 nM), selenium (5 ng/mL), human transferrin (5 μg/mL), bovine insulin (10 nM) and L-ascorbic acid-2-phosphate (50 μM) were added to fresh culture medium immediately prior to daily media change.
# All numbered compounds were diluted in methanol and the final concentration of methanol in RPRC was less then 0.1% (v/v).
# Measurement of RPRC Death
# Cell death was monitored in RPRC by assessment of both annexin V and PI staining using flow cytometry. Briefly, RPRC were exposed to the indicated concentrations of compounds for 24 hr. Media was removed and RPRC washed twice with phosphate-buffered saline (PBS) and incubated in a binding buffer (10 mM HEPES, 140 mM NaCL, 5 mM KCL, 1 mM MgCl2, 1.8 mM CaCl2, pH=7.4) containing annexin V-FITC (1 μmol) and PI (25 μg/mL). After a 10 min incubation, RPRC were washed three times in the binding buffer and were released from the monolayers by gentle scrapping with a rubber policeman. Annexin V and PI staining were measured using a BectonDickson FacsCalibur flow cytometer (San Jose, Calif.). An equal number of cells (10,000) were counted for sample and apoptotic cells were defined as those that stained positive for annexin V-FITC only. RPRC undergoing necrotic cell death stained for PI only.
# RPRC isolated from one rabbit represented one experiment (n=1). Data were analyzed and are reported as means±standard error of the mean of at least 3 separate experiments.
# [5] = test system: B. subtilis; assay: microbe, parasite or virus in culture; assay type: cell-based; settings: multiple values = two or more tests; for MIC: Bacillus subtilis, read-out: Minimal Inhibitory Concentration (MIC), B. subtilis
# [6] = test system: A. niger; assay: MIC test, fungal growth inhibition; assay type: cell-based; settings: in vitro
# Method: (§1) Antimicrobial Testing (P. aeruginosa, E. coli, B. subtilis, S. aureus, S. aureus (MCR), A. niger and M. flavescens.)
# (§2) The MIC test procedures conformed to the present protocol from the National Committee for Clinical Laboratory Standards (NCCLS), and were designed to provide basic antimicrobial data on compounds based on the MIC of the active component.
# (§3) The test compounds were solubilized, diluted, and pipetted in duplicate into 10 mL sterile culture tubes and dried under vacuum.
# (§4) Challenge organisms, specified were grown overnight at 37° C. in the appropriate medium (i.e., Mueller-Hinton Broth). These pure broth cultures were diluted 1:1,000 and 2.0 mL were added to the test compound tubes.
# (§5) Appropriate media controls, challenge organism viability controls, and antibiotic control dilutions (i.e., ampicillin and nystatin), were prepared in the same manner as the test compounds and run against the challenge organisms.
# [7] = test system: C. albicans; assay: MIC test, fungal growth inhibition; assay type: cell-based; settings: in vitro
# Method: as §2, §3, §4, §5
# [8] = test system: E. coli; assay: MIC test (NCCLS broth dilution), growth inhibition; assay type: cell-based; settings: in vitro
# Method: as §1, §3, §4, §5
# [9] = test system: P aeruginosa; assay: MIC test (NCCLS broth dilution), growth inhibition; assay type: cell-based; settings: in vitro
# Method: as §1, §3, §4, §5
# [10] = test system: S. aureus; assay: microbe, parasite or virus in culture; assay type: cell-based; settings: multiple values = two or more tests
# [11] = test system: M. flavescens; assay: microbe, parasite or virus in culture; assay type: cell-based
# [12] = STERNE34F2, read-out: approximate MIC, B. anthracis (first value)
# [13] = STERNE34F2, read-out: approximate MIC, B. anthracis (second value)
# Chain of NAD synthetase (P08164 whole entry): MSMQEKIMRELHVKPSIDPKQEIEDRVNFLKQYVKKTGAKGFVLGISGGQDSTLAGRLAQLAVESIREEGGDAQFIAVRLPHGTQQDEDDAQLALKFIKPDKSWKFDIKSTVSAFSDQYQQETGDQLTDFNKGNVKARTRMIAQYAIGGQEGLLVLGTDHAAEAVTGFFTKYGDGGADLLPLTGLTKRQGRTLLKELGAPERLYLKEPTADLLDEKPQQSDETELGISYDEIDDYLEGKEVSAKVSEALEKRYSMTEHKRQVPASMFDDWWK
smiles,measurement,setting,value
C[N+](C)(C)C(Cc1ccccc1)C(=O)NCCCCCCCCOc1ccc(OC(=O)c2cccc(Cl)c2)cc1 (centres unmarked) [Compound 1594],MIC,[1]; [12],8 µg/mL
same,MIC,[1]; [13],32 µg/mL
same,MIC,[2],< 6.25 µg/mL
same,IC50,[3],25 µM
same,% CELLULAR NECROSIS (RPRC),[4],29 ± 4%
same,% APOPTOSIS (RPRC),[4],13 ± 2%
same,MIC,[5],> 50 µg/mL
"O=C(O)c1cn(C2CC2)c2cc(N3CCNCC3)c(F)cc2c1=O [Ciprofloxacin, reference compound]",MIC,[1]; [12],0.25 µg/mL
same,MIC,[1]; [13],0.125 µg/mL
same,% CELLULAR NECROSIS (RPRC),[4],4 ± 1%
same,% APOPTOSIS (RPRC),[4],9 ± 3%
C[N+](C)(C)C(Cc1ccccc1)C(=O)NCCCCCCCCOc1ccc(OC(=O)c2cc(F)cc(F)c2F)cc1 (centres unmarked) [Compound 1617],MIC,[1]; [12],16 µg/mL
same,MIC,[2],< 6.25 µg/mL
same,IC50,[3],31.4 µM
same,% CELLULAR NECROSIS (RPRC),[4],18 ± 2%
same,% APOPTOSIS (RPRC),[4],23 ± 3%
same,MIC,[5],< 12.5 µg/mL
"C[C@@H]1[C@H](O)[C@@H](C)/C=C/C=C/C=C/C=C/C=C/C=C/C=C/[C@H](O[C@@H]2O[C@H](C)[C@@H](O)[C@H](N)[C@@H]2O)C[C@@H]2O[C@](O)(C[C@@H](O)C[C@@H](O)[C@H](O)CC[C@@H](O)C[C@@H](O)CC(=O)O[C@H]1C)C[C@H](O)[C@H]2C(=O)O [Amphotericin B, reference compound]","Potency to inhibit growth, A. niger (MIC)",[6],<1.56 µg/mL
same,"Potency to inhibit growth, C. albicans (MIC)",[7],<1.56 µg/mL
Cl.N=C(N)N[C@H](COCCCCCCCCOc1ccc(OCc2ccccc2)cc1)Cc1ccccc1 [Compound 1685],"approximate MIC, B. anthracis (first value)","[1]; first value of cell, standard broth dilution assay using bacterial growth media (order assumed)",4; 4 μg/mL
same,"approximate MIC, B. anthracis (second value)","[1]; second value of cell, visual turbidity, bacteria cultured in mammalian cell culture media (order assumed)",4; 4 μg/mL
same,"Minimal Inhibitory Concentration (MIC), S. aureus (MCR)",[2],<0.78 µg/mL
same,IC50,[3],9.9 µM
same,"Minimal Inhibitory Concentration (MIC), B. subtilis",[5],<3.13 µg/mL
"CC1(C)S[C@@H]2[C@H](NC(=O)[C@H](N)c3ccccc3)C(=O)N2[C@H]1C(=O)O [Ampicillin, reference compound]",MIC,[2],> 50 µg/mL
"C[N+](C)(C)C.[I-] [TMAI, tetramethylammonium iodide, reference compound]",% CELLULAR NECROSIS (RPRC),[4],2 ± 1%
same,% APOPTOSIS (RPRC),[4],5 ± 1%
C[N+](C)(C)C(Cc1ccccc1)C(=O)OCCCCCCCCOc1ccc(OCc2cccc(Cl)c2)cc1.[I-] (centres unmarked) [Compound 1391],"Minimal Inhibitory Concentration (MIC), S. aureus (MCR)",[2],<1.56 µg/mL
same,IC50,[3],11.5 µM
same,"Minimal Inhibitory Concentration (MIC), B. subtilis",[5],<3.13 µg/mL
C[N+](C)(C)C(Cc1c[nH]c2ccccc12)C(=O)OCCCCCCCn1ccc2cc(OCc3ccccc3)ccc21 (centres unmarked) [Compound 1505],MIC,[2],< 0.78 µg/mL
same,IC50,[3],6.6 µM
same,MIC,[5],< 0.78 µg/mL
COc1cccc(COc2ccc(OCCCCCCCCNC(=O)[C@H](Cc3ccccc3)[N+](C)(C)C)cc2)c1.[I-] [Compound 1423],"Potency to inhibit growth, A. niger (MIC)",[6],<50 µg/mL
same,"Minimal Inhibitory Concentration (MIC), S. aureus (MCR)",[2],<1.56 µg/mL
same,IC50,[3],32.9 µM
same,"Potency to inhibit growth, E. coli (MIC)",[8],>50 µg/mL
same,"Potency to inhibit growth, P aeruginosa (MIC)",[9],>50 µg/mL
same,"Potency to inhibit growth, C. albicans (MIC)",[7],<3.13 µg/mL
same,"Minimal Inhibitory Concentration (MIC), B. subtilis",[5],<0.20 µg/mL
same,"Minimal Inhibitory Concentration (MIC), S. aureus",[10],<1.56 µg/mL
C[N+](C)(C)[C@@H](Cc1ccccc1)C(=O)NCCCCCCCCOc1ccc2c(c1)C(=O)CC(c1ccccc1)O2.[I-] (some centres unmarked) [Compound 1450],"Minimal Inhibitory Concentration (MIC), M. flavescens",[11],<3.13 µg/mL
same,"Potency to inhibit growth, A. niger (MIC)",[6],>50 µg/mL
same,"Minimal Inhibitory Concentration (MIC), S. aureus (MCR)",[2],<3.13 µg/mL
same,IC50,[3],31.7 µM
same,"Potency to inhibit growth, E. coli (MIC)",[8],>50 µg/mL
same,"Potency to inhibit growth, P aeruginosa (MIC)",[9],>50 µg/mL
same,"Potency to inhibit growth, C. albicans (MIC)",[7],<6.25 µg/mL
same,"Minimal Inhibitory Concentration (MIC), B. subtilis",[5],<3.13 µg/mL
same,"Minimal Inhibitory Concentration (MIC), S. aureus",[10],<3.13 µg/mL
CN(C)c1ccc(C(=O)Oc2ccc(OCCCCCCCCOC(=O)C(Cc3ccccc3)[N+](C)(C)C)cc2)cc1 (centres unmarked) [Compound 1484],MIC,[2],< 0.78 µg/mL
same,IC50,[3],14.8 µM
same,MIC,[5],< 3.13 µg/mL
"C[C@H]1c2cccc(O)c2C(=O)C2=C(O)[C@]3(O)C(=O)C(C(N)=O)=C(O)[C@@H](N(C)C)[C@@H]3[C@@H](O)[C@@H]21 [Doxycycline, reference compound]",MIC,[2],< 30 µg/mL
same,MIC,"[8]; Escherichia coli, read-out: Potency to inhibit growth, E. coli (MIC)",< 1.56 µg/mL
same,MIC,"[9]; Pseudomonas aeruginosa, read-out: Potency to inhibit growth, P aeruginosa (MIC)",< 30 µg/mL
same,MIC,[5],< 1.56 µg/mL
same,MIC,"[10]; Staphylococcus aureus, read-out: Minimal Inhibitory Concentration (MIC), S. aureus",< 1.56 µg/mL
CC(C)Oc1ccc(C(=O)Oc2ccc(OCCCCCCCCNC(=O)Cc3ccc([N+](C)(C)C)cc3)cc2)cc1 [Compound 1629],IC50,[3],21.1 µM
N=C(N)N[C@H](COCCCCCCCCOc1ccc(OCc2ccccc2)cc1)Cc1ccccc1 [Compound 1680],IC50,[3],10.1 µM
C[N+](C)(C)C(Cc1ccccc1)C(=O)NCCCCCCCCOc1ccc(OC(=O)c2ccc(F)c(F)c2)cc1 (centres unmarked) [Compound 1613],IC50,[3],19.1 µM
C[N+](C)(C)c1ccc(CC(=O)NCCCCCCCCOc2ccc(OC(=O)c3c(Cl)cc(Cl)cc3Cl)cc2)cc1 [Compound 1645],IC50,[3],18.1 µM
C[N+]1([C@@H](Cc2ccccc2)C(=O)OCCCCCCCCOc2ccc(OCc3ccccc3)cc2)CCCCC1 [Compound 1337],IC50,[3],20.3 µM
C[N+](C)(C)[C@@H](Cc1c[nH]c2ccccc12)C(=O)OCCCCCCCCOc1ccc(OCc2ccccc2)cc1 [Compound 1491],IC50,[3],19.9 µM
C[n+]1cccc(C(=O)NCCCCCCCCOc2ccc(OCc3cccc(Cl)c3)cc2)c1 [Compound 1422],IC50,[3],27.9 µM
CN(C)[C@@H](Cc1ccccc1)C[N+](C)(C)CCCCCCCCOc1ccc(OCc2ccccc2)cc1 [Compound 1498],IC50,[3],39.4 µM
COc1ccccc1COc1ccc(OCCCCCCCCOC(=O)Cc2ccc([N+](C)(C)C)cc2)cc1 [Compound 1393],IC50,[3],36.7 µM
CCC[N+]1([C@@H](Cc2ccccc2)C(=O)OCCCCCCCCOc2ccc(OCc3ccccc3)cc2)CCCC1 [Compound 1443],IC50,[3],27.9 µM
C[N+](C)(C)C(Cc1ccccc1)C(=O)NCCCCCCCCOc1ccc(OC(=O)c2c(F)cc(F)cc2F)cc1 (centres unmarked) [Compound 1620],IC50,[3],21.9 µM
COc1ccccc1COc1ccc(OCCCCCCCCOC(=O)C(Cc2ccccc2)[N+](C)(C)C)cc1 (centres unmarked) [Compound 1387],IC50,[3],20.5 µM
C[N+](C)(C)C(Cc1ccccc1)C(=O)NCCCCCCCCOc1ccc(OC(=O)c2c(Cl)cccc2Cl)cc1 (centres unmarked) [Compound 1606],IC50,[3],39.1 µM
C[N+](C)(C)C(Cc1ccccc1)C(=O)OCCCCCCCCOc1ccc(OC(=O)c2ccccc2)cc1 (centres unmarked) [Compound 1431],IC50,[3],18.2 µM
COC(=O)c1ccc(OCCCCCCCCOC(=O)Cc2ccc([N+](C)(C)C)cc2)cc1OCc1ccccc1 [Compound 1186],IC50,[3],46.1 µM
C[N+](C)(C)C(Cc1ccccc1)C(=O)NCCCCCCCCOc1ccc(OC(=O)c2cc(F)c(F)c(F)c2)cc1 (centres unmarked) [Compound 1621],IC50,[3],25.5 µM
